Converted amounts (≈) assume the structure as drawn.
Tested on: P388
Test: Cytotoxicity against mouse P388 cells after 3 days by MTT assay
Type: functional, cell-based
Conditions: P388, 72 h

Row | SMILES | IC50 [µg/mL]
1 | CC1=CC(=O)O[C@@H]1[C@@]1(C)C[C@H]2OC(=O)C[C@H]3[C@@H](C)[C@@H](O)[C@]4(O)OC[C@]23[C@@H]14 [AILANQUASSIN A] | 39 (≈ 107 µM)
2 | CC(=O)O[C@H]1C[C@@](C)([C@H]2OC(=O)C[C@@H]2CO)C2=CC(=O)O[C@@H]3C[C@@H]4[C@](C)(C(=O)C=C[C@@]4(C)O)[C@@H]1[C@]23C [GUANEPOLIDE] | 70 (≈ 139 µM)
3 | CC1=C[C@H](O)[C@@H](O)[C@]2(C)[C@H]3[C@@]4(O)OC[C@]35[C@H]([C@@H](C)[C@H]4O)[C@@H](O)C(=O)O[C@@H]5C[C@@H]12 [GLAUCARUBOL] | > 100
4 | CC1=CC(=O)[C@@H](O)[C@]2(C)[C@H]3[C@@H](O)[C@H](O)[C@@]4(C)OC[C@@]35[C@@H](C[C@@H]12)OC(=O)[C@H](OC(=O)CC(C)C)[C@@H]45 [CEDRONOLACTONE A] | 0.0074 (≈ 0.0155 µM)
5 | CC1=CC(=O)O[C@H]1[C@@]1(C)C[C@H]2OC(=O)[C@H](O)[C@H]3[C@@H](C)[C@@H](O)[C@]4(O)OC[C@@]32[C@@H]14 [CEDRONOLACTONE C] | 49 (≈ 129 µM)
6 | CC1=CC(=O)[C@@H](O)[C@]2(C)[C@H]3[C@@H](O)[C@H](O)[C@@]4(C)OC[C@@]35[C@@H](C[C@@H]12)OC(=O)[C@H](O)[C@@H]45 [YADANZIOLIDE C] | 2.4 (≈ 6.08 µM)
7 | CC1=CC(=O)O[C@H]1[C@@]1(C)C[C@H]2OC(=O)C[C@H]3[C@@H](C)[C@@H](O)[C@]4(O)OC[C@]23[C@@H]14 [CEDRONOLACTONE B] | 6.5 (≈ 17.8 µM)
8 | CC1=CC(=O)[C@@H](O)[C@]2(C)[C@H]3[C@@]4(O)OC[C@@]35[C@@H](C[C@@H]12)OC(=O)C[C@H]5[C@@H](C)[C@H]4O [CHAPARRINONE] | 0.92 (≈ 2.43 µM)
9 | CC1=C[C@H](O)[C@@H](O)[C@]2(C)[C@H]3[C@@]4(O)OC[C@@]35[C@@H](C[C@@H]12)OC(=O)C[C@H]5[C@@H](C)[C@H]4O [CHAPARRIN] | > 100
10 | CC1=CC(=O)O[C@@H]1[C@@]1(C)C[C@H]2OC(=O)[C@H](O)[C@H]3[C@@H](C)[C@@H](O)[C@]4(O)OC[C@@]32[C@@H]14 [POLYANDROL] | 17 (≈ 44.7 µM)
11 | CC[C@@H](C)C(=O)O[C@H]1C(=O)O[C@@H]2C[C@H]3C(C)=CC(=O)[C@@H](O)[C@]3(C)[C@H]3[C@@H](O)[C@H](O)[C@]4(C)OC[C@]32[C@@H]14 [SIMALIKALACTONE D] | 0.0055 (≈ 0.0115 µM)
12 | CC1=CC(=O)[C@@H](O)[C@]2(C)[C@H]3[C@]4(O)OC[C@]35[C@H]([C@@H](C)[C@H]4O)[C@@H](O)C(=O)O[C@@H]5C[C@@H]12 [GLAUCARUBOLONE] | 1.4 (≈ 3.55 µM)

From ChEMBL document CHEMBL1150905, “Cytotoxic quassinoids from Simaba cedron” (J Nat Prod, 1998)
